The MIC50 is the lowest concentration that inhibits either 50% of growth or 50% of the strains tested, depending on the study. By MIC90 is commonly meant the lowest concentration that inhibits either 90% of growth or 90% of the strains tested, depending on the study. A word on the ED50: it is the dose at which the effect has come halfway, by size or by number of responders.

What all share (assay type): functional
One assay deals with Trichophyton tonsurans. The assay is described as follows: Minimum inhibitory concentration against Trichophyton tonsurans (n=18). Conditions: Trichophyton tonsurans; for MIC50: read-out: MIC50; for MIC90: read-out: MIC90.
Assay [1] is filed under the species Cavia porcellus. The assay is described as follows: Effective dose was measured in guinea pig infected with Microsporum canis on 14th day. The conditions noted are these: Cavia porcellus; read-out: ED50.
Assay [2] is filed under the species Cavia porcellus. Kind of assay: Effective dose was measured in guinea pig infected with Microsporum canis on 21st day. Conditions: Cavia porcellus; read-out: ED50.
The species named for a further assay is Mus musculus. The assay is described as follows: Effective dose was measured in mice infected with Trichophyton mentagrophytes. The conditions noted are these: Mus musculus; read-out: ED50.
The species named for assay [3] is Cavia porcellus. Kind of assay: Effective dose was measured in guinea pig infected with Microsporum canis on 7th day. The conditions noted are these: Cavia porcellus; read-out: ED50.
The subject of the next assay is Candida. Kind of assay: Minimum inhibitory concentration against Candida species (n=24). Conditions: for MIC50: Candida, read-out: MIC50.
The subject of the next assay is Aspergillus sp. Kind of assay: Minimum inhibitory concentration against Aspergillus species (n=8). Conditions: Aspergillus sp.; for MIC50: read-out: MIC50; for MIC90: read-out: MIC90.
Assay [4] in a line: Minimum inhibitory concentration against Microsporum species (n=38). The conditions noted are these: Microsporum; for MIC50: read-out: MIC50; for MIC90: read-out: MIC90.
In the next assay the test system is Trichophyton rubrum. The assay is described as follows: Minimum inhibitory concentration against Trichophyton rubrum (n=14). Conditions: Trichophyton rubrum; for MIC50: read-out: MIC50; for MIC90: read-out: MIC90.
Assay [5] in a line: Minimum inhibitory concentration against Trichophyton species (n=80). Conditions: Trichophyton; for MIC50: read-out: MIC50; for MIC90: read-out: MIC90.
A further assay deals with Epidermophyton floccosum. Kind of assay: Minimum inhibitory concentration against Epidermophyton floccosum (n=12). The conditions noted are these: Epidermophyton floccosum; for MIC50: read-out: MIC50; for MIC90: read-out: MIC90.
The test system of a further assay is Trichophyton benhamiae. Kind of assay: Minimum inhibitory concentration against Trichophyton mentagrophytes (n=20). Conditions: Trichophyton benhamiae; for MIC50: read-out: MIC50; for MIC90: read-out: MIC90.

≈ marks a conversion by molar mass, not a printed value.

On to `CC(C)N1CCN(c2ccc(N3CCN(c4ccc(OC[C@@H]5CO[C@@](Cn6cncn6)(c6ccc(F)cc6F)O5)cc4)CC3)cc2)C1=O`, for which the MIC50 in the assay on Trichophyton tonsurans was 1 µg/mL (≈ 1.52 µM); in the assay with Candida it was 0.32 µg/mL (≈ 0.485 µM); in the assay on Aspergillus sp. it was 0.66 µg/mL (≈ 1 µM); in assay [4] it was 0.1 µg/mL (≈ 0.152 µM); in the assay with Trichophyton rubrum, 0.32 µg/mL (≈ 0.485 µM); in assay [5], 0.32 µg/mL (≈ 0.485 µM). Further, the MIC50 with Epidermophyton floccosum and in the assay on Trichophyton benhamiae was 0.032 µg/mL (≈ 0.0485 µM) throughout. Moreover, the MIC90 in the assay on Trichophyton tonsurans is 1 µg/mL (≈ 1.52 µM); against Candida, more than 20 µg/mL; in the assay on Aspergillus sp. it was 1.66 µg/mL (≈ 2.52 µM); in assay [4], 0.32 µg/mL (≈ 0.485 µM); with Trichophyton rubrum it was 0.934 µg/mL (≈ 1.42 µM); in assay [5], 1 µg/mL (≈ 1.52 µM). Further, the results for the MIC90 in the assay with Epidermophyton floccosum and in the assay with Trichophyton benhamiae were 0.093 µg/mL (≈ 0.141 µM) and 0.032 µg/mL (≈ 0.0485 µM), respectively. For the same compound, the ED50 in the assay filed under Cavia porcellus [1] was 0.44 mg/kg; in the assay filed under Cavia porcellus [2], 0.33 mg/kg; in the assay filed under Mus musculus, more than 2.5 mg/kg; in the assay filed under Cavia porcellus [3], 0.33 mg/kg.

As to `CCN1C(=O)N(c2ccc(N3CCN(c4ccc(OC[C@H]5CO[C@](Cn6cncn6)(c6ccc(F)cc6F)O5)cc4)CC3)cc2)C(=O)C(C)(C)C1=O`, the MIC50 with Trichophyton tonsurans was more than 20 µg/mL; with Candida, 0.66 µg/mL (≈ 0.922 µM); with Aspergillus sp. it was more than 20 µg/mL; in assay [4], 10 µg/mL (≈ 14 µM); in the assay with Trichophyton rubrum, 11.6 µg/mL (≈ 16.2 µM); in assay [5], more than 20 µg/mL. Also, the MIC50 is 3.2 µg/mL (≈ 4.47 µM) with Epidermophyton floccosum and 1 µg/mL (≈ 1.4 µM) in the assay on Trichophyton benhamiae. Besides, the MIC90 (in the assay on Trichophyton tonsurans; in the assay with Candida; in the assay with Aspergillus sp.; in assay [4]; with Trichophyton rubrum; in assay [5]) was more than 20 µg/mL each time. Besides, the MIC90 in the assay on Epidermophyton floccosum and in the assay on Trichophyton benhamiae was more than 20 µg/mL throughout. Besides, the ED50 was more than 5 mg/kg in the assay listed under Cavia porcellus [1], more than 5 mg/kg in the assay listed under Cavia porcellus [2], 3.1 mg/kg in the assay listed under Mus musculus and more than 5 mg/kg in the assay listed under Cavia porcellus [3].

Regarding `CN(C/C=C/C#CC(C)(C)C)Cc1cccc2ccccc12` [TERBINAFINE], the MIC50 was 0.032 µg/mL (≈ 0.11 µM) in the assay with Trichophyton tonsurans; 20 µg/mL (≈ 68.6 µM) with Candida; 0.32 µg/mL (≈ 1.1 µM) in the assay on Aspergillus sp.; 0.032 µg/mL (≈ 0.11 µM) in assay [4]; 0.01 µg/mL (≈ 0.0343 µM) in the assay on Trichophyton rubrum; 0.01 µg/mL (≈ 0.0343 µM) in assay [5]. The MIC50 stood at 0.032 µg/mL (≈ 0.11 µM) with Epidermophyton floccosum and 0.01 µg/mL (≈ 0.0343 µM) in the assay on Trichophyton benhamiae. For the same compound, the MIC90 with Trichophyton tonsurans was determined as 0.0524 µg/mL (≈ 0.18 µM); in the assay on Candida, 20 µg/mL (≈ 68.6 µM); with Aspergillus sp., 1.66 µg/mL (≈ 5.7 µM); in assay [4] it was 0.032 µg/mL (≈ 0.11 µM); in the assay with Trichophyton rubrum, 0.0254 µg/mL (≈ 0.0872 µM); in assay [5], 0.032 µg/mL (≈ 0.11 µM). Also, the MIC90 in the assay on Epidermophyton floccosum stood at 0.093 µg/mL (≈ 0.319 µM); in the assay with Trichophyton benhamiae it was 0.01 µg/mL (≈ 0.0343 µM). Besides, the ED50 came to 10 mg/kg in the assay filed under Cavia porcellus [1], 10 mg/kg in the assay listed under Cavia porcellus [2], 2.5 mg/kg in the assay listed under Mus musculus and 10 mg/kg in the assay listed under Cavia porcellus [3].

As for `CC(C)N1CCN(c2ccc(N3CCN(c4ccc(OC[C@@H]5OC[C@@](Cn6cncn6)(c6ccc(F)cc6F)O5)cc4)CC3)cc2)C1=O`, the MIC50 in the assay on Trichophyton tonsurans stood at 20 µg/mL (≈ 30.3 µM); in the assay on Candida, 20 µg/mL (≈ 30.3 µM); in the assay with Aspergillus sp., 20 µg/mL (≈ 30.3 µM); in assay [4], 2.1 µg/mL (≈ 3.18 µM); in the assay on Trichophyton rubrum, 20 µg/mL (≈ 30.3 µM); in assay [5], 20 µg/mL (≈ 30.3 µM). Moreover, the MIC50 in the assay on Epidermophyton floccosum and in the assay on Trichophyton benhamiae was 1 µg/mL (≈ 1.52 µM) throughout. Also, the MIC90 (with Trichophyton tonsurans; against Candida; in the assay on Aspergillus sp.; in assay [4]; in the assay on Trichophyton rubrum; in assay [5]) was 20 µg/mL (≈ 30.3 µM) each time. Besides, the MIC90 in the assay on Epidermophyton floccosum and with Trichophyton benhamiae was 20 µg/mL (≈ 30.3 µM) throughout. Further, the ED50 in the assay filed under Cavia porcellus [1], in the assay listed under Cavia porcellus [2] and in the assay filed under Cavia porcellus [3] was 2.5 mg/kg throughout.

On to `CCN1C(=O)N(c2ccc(N3CCN(c4ccc(OC[C@H]5OC[C@](Cn6cncn6)(c6ccc(F)cc6F)O5)cc4)CC3)cc2)C(=O)C(C)(C)C1=O`, for which the MIC50 with Trichophyton tonsurans is 3.2 µg/mL (≈ 4.47 µM); in the assay on Candida it was 0.66 µg/mL (≈ 0.922 µM); in the assay on Aspergillus sp. it was more than 20 µg/mL; in assay [4], 3.2 µg/mL (≈ 4.47 µM); in the assay with Trichophyton rubrum, 3.2 µg/mL (≈ 4.47 µM); in assay [5], 3.2 µg/mL (≈ 4.47 µM). Further, the MIC50 in the assay with Epidermophyton floccosum was 1 µg/mL (≈ 1.4 µM); with Trichophyton benhamiae, 3.2 µg/mL (≈ 4.47 µM). Further, the MIC90 in the assay with Trichophyton tonsurans was 13 µg/mL (≈ 18.2 µM); with Candida it was more than 20 µg/mL; in the assay with Aspergillus sp. it was more than 20 µg/mL; in [4], more than 20 µg/mL; in the assay with Trichophyton rubrum, 10 µg/mL (≈ 14 µM); in [5], more than 20 µg/mL. For the same compound, the results for the MIC90 in the assay with Epidermophyton floccosum and in the assay on Trichophyton benhamiae were 2.98 µg/mL (≈ 4.16 µM) and 3.2 µg/mL (≈ 4.47 µM), respectively. The ED50 in the assay listed under Cavia porcellus [1], in the assay listed under Cavia porcellus [2] and in the assay filed under Cavia porcellus [3] was 2.35 mg/kg in each case.
